ChEMBL document CHEMBL4130510, “Cytotoxic Dibohemamines D-F from a Streptomyces Species” (J Nat Prod, 2017)

Assays:
HepG2 = test: Cytotoxicity against human HepG2 cells by SRB assay; type: functional, cell-based
A549 = test: Cytotoxicity against human A549 cells by SRB assay; type: functional, cell-based

Structure (SMILES) | IC50 (HepG2) [µM] | IC50 (A549) [µM]
CC(C)=CC(=O)NC1=C(CC2=C(NC(=O)C=C(C)C)N3[C@@H](C)[C@H]4O[C@H]4[C@@]3(C)C2=O)C(=O)[C@]2(C)C[C@H](O)[C@H](C)N12 | 0.3 | 1.1
CC(C)=CC(=O)NC1=C(CC2=C(NC(=O)C=C(C)C)N3[C@@H](C)[C@H]4O[C@H]4[C@@]3(C)C2=O)C(=O)[C@]2(C)[C@H](O)C[C@H](C)N12 | 7.3 | 20.2
CC(C)=CC(=O)NC1=C(CC2=C(NC(=O)C=C(C)C)N3[C@@H](C)[C@H]4O[C@H]4[C@@]3(C)C2=O)C(=O)[C@]2(C)[C@@H]3O[C@@H]3[C@H](C)N12 | 10.8 | 39.2
CC(C)=CC(=O)NC1=CC(=O)[C@]2(C)C[C@H](O)[C@H](C)N12 [BOHEMAMINE B] | 181 | 502
CC(C)=CC(=O)NC1=CC(=O)[C@]2(C)[C@@H]3O[C@@H]3[C@H](C)N12 [BOHEMAMINE] | 29.7 | 290
COc1cccc2c1C(=O)c1c(O)c3c(c(O)c1C2=O)C[C@@](O)(C(=O)CO)C[C@@H]3O[C@H]1C[C@H](N)[C@H](O)[C@H](C)O1 [DOXORUBICIN] | – | 1.4
